The values that follow come from ChEMBL document CHEMBL1146675, “Kringle 5 peptide-albumin conjugates with anti-migratory activity” (Bioorg Med Chem Lett, 2004).

Peptide text beside a SMILES is read from it. * marks the point of attachment. Propanoyl(3-maleimido) = O=C1C=CC(=O)N1CCC(=O)*

The species named for the assay is Homo sapiens. In words: Percent of unbound maleimide to human serum albumin. The assay is classed as functional.
Consider `CC(=O)N[C@@H](CCCN=C(N)N)C(=O)N[C@@H](CC(N)=O)C(=O)N1CCC[C@H]1C(=O)N[C@@H](CC(=O)O)C(=O)NCC(=O)N[C@@H](CC(=O)O)C(=O)N[C@H](C(=O)NCC(=O)NCC(=O)N1CCC[C@H]1C(=O)N[C@@H](Cc1c[nH]c2ccccc12)C(=O)N[C@@H](C)C(=O)N[C@@H](Cc1ccc(O)cc1)C(=O)N[C@H](C(=O)N[C@H](C(=O)N[C@@H](CC(N)=O)C(=O)N1CCC[C@H]1C(=O)N[C@@H](CCCN=C(N)N)C(=O)N[C@@H](CCCCN)C(=O)N[C@@H](CC(C)C)C(=O)N[C@@H](Cc1ccc(O)cc1)C(=O)N[C@@H](CC(=O)O)C(=O)N[C@@H](Cc1ccc(O)cc1)C(=O)N[C@@H](CCCCNC(=O)CCN1C(=O)C=CC1=O)C(N)=O)[C@@H](C)O)[C@@H](C)O)C(C)C` (Ac-RNPDGDVGGPWAYTTNPRKLYDYK(Propanoyl(3-maleimido))-NH2), for which the Activity was 0.22%.

Regarding `CC(C)C[C@H](NC(=O)[C@H](CCCCN)NC(=O)[C@H](CCCN=C(N)N)NC(=O)[C@@H]1CCCN1C(=O)CCN1C(=O)C=CC1=O)C(=O)N[C@@H](Cc1ccc(O)cc1)C(=O)N[C@@H](CC(=O)O)C(=O)N[C@@H](Cc1ccc(O)cc1)C(N)=O` ({Propanoyl(3-maleimido)}-PRKLYDY-NH2), the Activity is 1.1%.

With `CC(C)C[C@H](NC(=O)[C@H](CCCCN)NC(=O)[C@H](CCCN=C(N)N)NC(=O)[C@@H]1CCCN1C(=O)[C@H](CC(N)=O)NC(=O)[C@@H](NC(=O)[C@@H](NC(=O)[C@H](Cc1ccc(O)cc1)NC(=O)[C@H](C)NC(=O)[C@H](Cc1c[nH]c2ccccc12)NC(=O)[C@@H]1CCCN1C(=O)CNC(=O)CNC(=O)[C@@H](NC(=O)[C@H](CC(=O)O)NC(=O)CNC(=O)[C@H](CC(=O)O)NC(=O)[C@@H]1CCCN1C(=O)[C@H](CC(N)=O)NC(=O)[C@H](CCCN=C(N)N)NC(=O)CCN1C(=O)C=CC1=O)C(C)C)[C@@H](C)O)[C@@H](C)O)C(=O)N[C@@H](Cc1ccc(O)cc1)C(=O)N[C@@H](CC(=O)O)C(=O)N[C@@H](Cc1ccc(O)cc1)C(N)=O` ({Propanoyl(3-maleimido)}-RNPDGDVGGPWAYTTNPRKLYDY-NH2), the Activity was 1.6%.
